Consider one molecule from PubChem BioAssay AID588710 (Vanderbilt Specialized Chemistry Center, 2011).

This assay deals with Metabotropic glutamate receptor 5 (Rattus norvegicus) (UniProt P31424). In words: PubChem AID 588710. The conditions noted are these: HEK293 rat mGluR5 membranes, [3H]methoxyPEPy displacement.

The term IC50 denotes the concentration at which inhibition is half-maximal.

Metabotropic glutamate receptor 5 (Rattus norvegicus), sequence (P31424 whole entry, looked up): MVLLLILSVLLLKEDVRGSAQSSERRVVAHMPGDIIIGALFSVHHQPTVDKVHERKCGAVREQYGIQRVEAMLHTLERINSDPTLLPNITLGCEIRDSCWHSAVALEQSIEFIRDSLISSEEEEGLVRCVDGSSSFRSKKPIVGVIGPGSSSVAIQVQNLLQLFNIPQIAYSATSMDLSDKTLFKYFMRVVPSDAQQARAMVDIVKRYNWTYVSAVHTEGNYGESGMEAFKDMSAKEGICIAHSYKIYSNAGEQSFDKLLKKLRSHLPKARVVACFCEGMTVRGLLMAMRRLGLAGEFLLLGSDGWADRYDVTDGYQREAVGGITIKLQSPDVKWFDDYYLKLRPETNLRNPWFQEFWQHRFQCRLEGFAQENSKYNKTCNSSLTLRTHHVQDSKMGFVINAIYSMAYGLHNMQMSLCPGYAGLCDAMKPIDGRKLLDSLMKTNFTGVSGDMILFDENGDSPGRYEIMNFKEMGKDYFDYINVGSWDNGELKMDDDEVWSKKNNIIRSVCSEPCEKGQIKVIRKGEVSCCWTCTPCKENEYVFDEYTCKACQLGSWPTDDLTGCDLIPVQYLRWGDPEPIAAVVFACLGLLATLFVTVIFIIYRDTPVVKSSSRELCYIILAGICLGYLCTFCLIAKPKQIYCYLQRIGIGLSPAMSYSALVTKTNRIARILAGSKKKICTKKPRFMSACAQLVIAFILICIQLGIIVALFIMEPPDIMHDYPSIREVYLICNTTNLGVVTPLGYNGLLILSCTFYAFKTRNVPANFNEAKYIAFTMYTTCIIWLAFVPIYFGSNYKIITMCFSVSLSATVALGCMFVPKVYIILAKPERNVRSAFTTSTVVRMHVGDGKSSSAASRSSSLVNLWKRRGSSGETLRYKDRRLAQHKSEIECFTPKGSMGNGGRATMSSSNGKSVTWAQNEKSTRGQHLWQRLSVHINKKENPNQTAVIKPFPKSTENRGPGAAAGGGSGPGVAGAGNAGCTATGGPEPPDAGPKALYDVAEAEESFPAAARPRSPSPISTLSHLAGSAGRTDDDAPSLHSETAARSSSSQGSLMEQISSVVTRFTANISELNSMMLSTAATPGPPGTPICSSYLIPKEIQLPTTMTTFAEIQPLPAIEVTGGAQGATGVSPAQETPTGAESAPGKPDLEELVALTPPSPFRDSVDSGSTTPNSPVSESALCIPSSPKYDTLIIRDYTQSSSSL

`C[C@@H](NC(=O)c1ccc(C#Cc2cccc(F)c2)cn1)C(C)(C)O`: the IC50 is 4.84 nM.
